# Values quoted from earlier work, collected in patent US20140303128A1, “TRANSMUCOSAL HORMONE DELIVERY SYSTEM” (priority 2013, published 2014).
# Key:
# [1] = smoking a cigarette (WO 03/055486 A1)
# [2] = pH 6.8
structure (smiles),measurement,setting,value
CN1CCCC1c1cccnc1 (centres unmarked) [nicotine],time to peak of plasma nicotine levels,[1],about 10 minutes
same,nicotine in the free base form,[2],about 10%
